# Reference: PMC10743905, “Design, Synthesis, and In Vitro and In Vivo Bioactivity Studies of Hydrazide–Hydrazones of 2,4-Dihydroxybenzoic Acid” (International Journal of Molecular Sciences, 2023)
# Read-outs that look alike come from different tables or passages of the source.
# Assays:
# [1] = tested on: HepG2; assay: MTT antiproliferative assay; type: cell-based; details: Homo sapiens, 24 h incubation, hepatocellular carcinoma
# Procedure: (§1) The in vitro studies were performed on the reference line HEK-293 (human embryonic kidney cells, ATCC® CRL-1573™) and […] human cancer cell lines: 769-P (adenocarcinoma, renal cells, ATCC® CRL-1933™) and HepG2 (carcinoma, hepatocellular, ATCC® HB-8065™), H1563 (adenocarcinoma, non-smallcell lung cancer, ATCC® CRL-5875™), LN-229 (glioblastoma, ATCC® CRL-2611™). Cells from the 769-P and H1563 cell lines were cultured in RPMI-1640 growth medium (PAN Biotech GmbH, Aidenbach, Bayern, Germany), cells from the HEK-293 and HepG2 cell lines were cultured in EMEM growth medium (PAN Biotech GmbH, Aidenbach, Bayern, Germany), and cells from the LN-229 cell line were cultured in DMEM growth medium (PAN Biotech GmbH, Aidenbach, Bayern, Germany) in sterile 75 cm^2 culture phalcones. Fetal bovine serum (PAN Biotech GmbH, Aidenbach, Bayern, Germany) at 10% of growth medium and antibiotics (Sigma-Aldrich, Poland) (2.5 µg/mL amphotericin B, 100 µg/mL penicillin, and 100 µg/mL streptomycin) were added to all media. Cells were cultured at 37 °C in an incubator with 5% CO2 flow until a cell layer was formed. Following this, the medium was removed, and the cells were washed with 0.25% trypsin solution with 2.21 mM EDTA (Corning Incorporated, Corning, NY, USA) in order to completely remove fetal bovine serum containing trypsin inhibitor. Finally, 6 mL of complete growth medium was added, and the cells were aspirated by gentle pipetting.
# (§2) The determination of inhibitory concentration (IC50) in the HEK-293, 769-P, HepG2, H1563, and LN-229 cell cultures for selected hydrazide–hydrazones was performed using the MTT assay procedure. This test was performed according to the MTT Assay ECVAM n°17 protocol manual prepared by the European Centre for the Validation of Alternative Methods (ECVAM), an entity that aims to reduce in vivo testing in favor of in vitro and in silico methods. To 96-well sterile plates, 100 μL of cell suspensions, prepared in the appropriate medium at a concentration of 3 × 10^5 cells/mL, was added using a multichannel pipette. To achieve cell adhesion to the bottom of the plates, cells were incubated for 24 h at 37 °C with 5% CO2 flow and 90% humidity. […] After this time, all medium was removed, 100 μL of DMSO (Corning Incorporated, Corning, NY, USA) was added to each well, and absorbance measurements were performed at 550 nm using a Power Weave xs spectrophotometric microplate reader (BioTek, Winooski, VT, USA). The decrease in absorbance is equivalent to the decrease in MTT formazan production, which is due to the decrease in mitochondrial dehydrogenase activity and indicates a cytotoxic effect from the tested substances. Cell viability is expressed as a percentage as the ratio of the absorbance of test substance-treated cells to the untreated cells. […]
# [2] = tested on: reference Gram-positive bacteria; assay: Broth microdilution, summary over the Gram-positive panel; type: cell-based
# Description: In vitro antimicrobial activity assays - Methodology
# The examined compounds 1 - 24 were screened in vitro for antibacterial and antifungal activities using the broth microdilution method according to procedure reported earlier by our research group and European Committee on Antimicrobial Susceptibility Testing (EUCAST) and Clinical and Laboratory Standards Institute (CLSI) guidelines against a panel of reference and clinical or saprophytic strains of microorganisms, in-cluding Gram-positive bacteria, Staphylococcus aureus ATCC 43300 (Methicillin Resistant S. aureus – MRSA), Staphylococcus aureus ATCC 29213 (Methicillin Susceptible S. aureus – MSSA), Staphylococcus epidermidis ATCC 12228, Enterococcus faecalis ATCC 29212, Micro-coccus luteus ATCC 10240, Bacillus subtilis ATCC 6633 and Bacillus cereus ATCC 10876), Gram-negative bacteria (Bordetella bronchiseptica ATCC 4617, Escherichia coli ATCC 25922, Klebsiella pneumoniae ATCC 13883, Proteus mirabilis ATCC 12453, Salmonella typhimurium ATCC 14028 and Pseudomonas aeruginosa ATCC 9027) and fungi belonging to yeasts (Can-dida albicans ATCC 10231, Candida albicans ATCC 2091, Candida parapsilosis ATCC 22019, Candida glabrata ATCC 90030 and Candida krusei ATCC 14243). The microorganisms be-longing to ATCC came from American Type Culture Collection, routinely used for the evaluation of antimicrobials. […]
# Samples containing examined compounds were dissolved in dimethyl sulfoxide (DMSO). […]
# Subsequently, the MIC (Minimal Inhibitory Concentration) of the compounds was ex-amined by the microdilution broth method, using their two-fold dilutions in Mueller- […]
# Hinton broth or (for bacteria) and RPMI 1640 broth with MOPS (for fungi) prepared in 96-well polystyrene plates. Final concentrations of the compounds ranged from 1000 to 0.488 µg/ml. Microbial suspensions were prepared in 0.85% NaCl with an optical density of 0.5 McFarland standard. Next each bacterial or fungal suspension was added per each well containing broth and various concentrations of the examined compounds. After incuba-
# [3] = tested on: HEK-293; assay: MTT cytotoxicity assay, reference line; type: cell-based; details: Homo sapiens, HEK293, 24 h incubation, non-tumor reference line
# Procedure: as §1, §2
SMILES,IC50 [1] [µM],IC50 [3] [µM],also measured
"O=C(N/N=C/c1ccc([N+](=O)[O-])cc1)c1ccc(O)cc1O [Compound 21, 2,4-dihydroxy-N-[(4-nitrophenyl)methylidene]benzohydrazide]",7.81,,MIC [2]: 500 to 1000 mg/L
"O=C(N/N=C/c1ccccc1F)c1ccc(O)cc1O [Compound 24, N-[(2-fluorophenyl)methylidene]-2,4-dihydroxybenzohydrazide]",> 500,387,
"CCCc1ccc(/C=N/NC(=O)c2ccc(O)cc2O)cc1 [Compound 13, 2,4-dihydroxy-N-[(4-propylphenyl)methylidene]benzohydrazide]",,,melting point: 197 °C; MBC [2]: > 1000 mg/L; MIC ([2]; read-out: MIC): 1000 mg/L
"O=C(N/N=C/c1ccccc1Cl)c1ccc(O)cc1O [Compound 22, N-[(2-chlorophenyl)methylidene]-2,4-dihydroxybenzohydrazide]",,315,
"O=C(N/N=C/c1ccccc1Br)c1ccc(O)cc1O [Compound 23, N-[(2-bromophenyl)methylidene]-2,4-dihydroxybenzohydrazide]",,91800,
"O=C(N/N=C/c1cccc([N+](=O)[O-])c1)c1ccc(O)cc1O [Compound 20, 2,4-dihydroxy-N-[(3-nitrophenyl)methylidene]benzohydrazide]",> 500,13400,
"O=C(N/N=C/c1cc(I)cc(I)c1O)c1ccc(O)cc1O [Compound 18, 2,4-dihydroxy-N-[(2-hydroxy-3,5-diiodophenyl)methylidene]benzohydrazide]",,,melting point: 220 °C; MBC [2]: 1.95 to 31.2 mg/L; MIC ([2]; read-out: MIC): 0.48 to 7.81 mg/L
"O=C(N/N=C/c1ccccc1[N+](=O)[O-])c1ccc(O)cc1O [Compound 19, 2,4-dihydroxy-N-[(2-nitrophenyl)methylidene]benzohydrazide]",> 500,,MIC [2]: 250 to 1000 mg/L
